The target in this assay is human DP2 (Homo sapiens (Human), UniProt Q9Y5Y4). Nature of the assay: DP-2 Binding Inhibition Assay (3H-PGD2 binding to membranes of K562 cells expressing DP2). Particulars: inhibition of 3H-PGD2 binding. As to the method:
DP-2 Binding Inhibition Assay
The coding sequence of human DP2 was introduced into the human Leukemic cell line K562 by electroporation and stable clones expressing DP2 were obtained by limiting dilution followed by cell surface staining with a rat monoclonal antibody specific for human DP2. Membranes were prepared from one of these DP2 expressing clones and used to determine the ability of compounds of the present invention to inhibit binding of prostaglandin D2 (PGD2) to its receptor DP2 in the presence of one or more of the following serum protein concentrations, 0.1% BSA, 1% HSA or 4% HSA, by the following procedure. Membranes (1.25 μg/well for 0.1% BSA and 6 μg/well for 1% or 4% HSA) were mixed with ^3H-labeled PGD2 and various concentrations of test compounds in 150 μL of binding buffer (50 mM Tris-HCl, pH 7.4, 40 mM MgCl2, 0.1% bovine serum albumin, 0.1% NaN3) in 96-well U-bottom polypropylene plates. After incubation for 60 minutes at room temperature, the assay was transferred to a filtration plate (#MAFB; Millipore Corporation, Bedford, Mass.), and washed three times with binding buffer. Radioactivity was measured by a scintillation counter (TopCount; PerkinElmer Life Sciences, Boston, Mass.). Nonspecific binding was determined by incubations in the presence of 1 μM unlabeled PGD2 or 5 μM of a known DP2 antagonist. EC50 values for inhibition of binding were determined for each compound tested from the inflexion point of a standard 4-parameter logistical curve fitted to the values obtained.

The mark [1] stands for this setting: read-out: EC50 (nM) 4% HSA, 4% HSA.
[2] abbreviates: read-out: EC50 (Nm) 1% HSA, 1% HSA.

Counter-ions that a name gives are not always drawn. Like-named read-outs stand apart in the source and are kept apart here.

Sequence of human DP2 (Q9Y5Y4 whole entry): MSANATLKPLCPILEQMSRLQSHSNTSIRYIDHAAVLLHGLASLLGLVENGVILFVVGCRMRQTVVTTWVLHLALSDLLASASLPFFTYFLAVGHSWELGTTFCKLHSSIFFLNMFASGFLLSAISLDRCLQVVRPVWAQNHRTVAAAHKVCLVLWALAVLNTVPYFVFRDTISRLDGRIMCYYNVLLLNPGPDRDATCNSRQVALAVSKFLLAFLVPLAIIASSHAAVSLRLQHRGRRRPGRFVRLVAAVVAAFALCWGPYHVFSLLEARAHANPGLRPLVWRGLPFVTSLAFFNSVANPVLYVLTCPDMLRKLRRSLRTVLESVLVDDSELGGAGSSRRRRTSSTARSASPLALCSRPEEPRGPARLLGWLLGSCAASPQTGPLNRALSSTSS

On to `O=C(NCCc1ccc(-c2ccccc2)cc1Cl)c1ccc(Oc2cc3c(cc2Cl)C(C(=O)O)CCO3)cc1` (centres unmarked) [Example 31, Sodium 6-chloro-7-(4-(2-(3-chlorobiphenyl-4-yl)ethylcarbamoyl)phenoxy)chroman-4-carboxylate], for which the EC50 (commonly the concentration that produces a half-maximal response) under setting [1] amounted to 91.4 nM.

Take `O=C(NCCc1ccc(Cl)cc1Br)c1ccc(Oc2cc3c(cc2Cl)C(C(=O)O)CCO3)cc1` (centres unmarked) [Example 32, Sodium 7-(4-(2-bromo-4-chlorophenethylcarbamoyl)phenoxy)-6-chlorochroman-4-carboxylate]: under setting [1], the EC50 stood at 88 nM.

`O=C(NCCc1ccc(Cl)cc1-c1ccccc1Cl)c1ccc(Oc2cc3c(cc2Cl)C(C(=O)O)CCO3)cc1` (centres unmarked) [Example 33, Sodium 6-chloro-7-(4-(2-(2′,5-dichlorobiphenyl-2-yl)ethylcarbamoyl)phenoxy)chroman-4-carboxylate]: under setting [1], the EC50 amounted to 126 nM.

Consider `COc1cc(Br)ccc1CCNC(=O)c1ccc(Oc2cc3c(cc2Cl)C(C(=O)O)CCO3)cc1` (centres unmarked) [Example 35, Sodium 7-(4-(4-bromo-2-methoxyphenethylcarbamoyl)phenoxy)-6-chlorochroman-4-carboxylate], for which, under setting [1], the EC50 stood at 64.3 nM.

For `COc1cc(C2CC2)ccc1CCNC(=O)c1ccc(Oc2cc3c(cc2Cl)C(C(=O)O)CCO3)cc1` (centres unmarked) [Example 36, Sodium 6-chloro-7-(4-(4-cyclopropyl-2-methoxyphenethylcarbamoyl)phenoxy)chroman-4-carboxylate], the EC50 reads like this: under setting [2], 17.3 nM; under setting [1], 93 nM.

With `O=C(NCCc1ccc(Cl)cc1)c1ccc(Oc2c(Cl)cc3c(c2Br)OCCC3C(=O)O)cc1` (centres unmarked) [Example 38, Sodium 8-bromo-6-chloro-7-(4-(4-chlorophenethylcarbamoyl)phenoxy)chroman-4-carboxylate], the EC50 under setting [1] was 366 nM.

In the case of `O=C(NCCc1ccc(Cl)cc1)c1ccc(Oc2c(C3CC3)cc3c(c2C2CC2)OCCC3C(=O)O)cc1` (centres unmarked) [Example 39, Sodium 7-(4-(4-chlorophenethylcarbamoyl)phenoxy)-6,8-dicyclopropylchroman-4-carboxylate], the EC50 under setting [1] was found to be 68.2 nM.

Consider `O=C(NCCc1ccc(Cl)cc1Cl)c1ccc(Oc2c(C3CC3)cc3c(c2C2CC2)OCCC3C(=O)O)cc1` (centres unmarked) [Example 40, Sodium 6,8-dicyclopropyl-7-(4-(2,4-dichlorophenethylcarbamoyl)phenoxy)chroman-4-carboxylate], for which the EC50 under setting [1] is 42.2 nM.

`O=C(NCCc1ccc(Cl)cc1)c1ccc(Oc2cc3c(cc2C2CC2)C(C(=O)O)CCO3)cc1` (centres unmarked) [Example 41, Sodium 7-(4-(4-chlorophenethylcarbamoyl)phenoxy)-6-cyclopropylchroman-4-carboxylate]: the EC50 under setting [1] stood at 150 nM.

As for `O=C(NCCc1ccc(Cl)cc1Cl)c1ccc(Oc2cc3c(cc2C2CC2)C(C(=O)O)CCO3)cc1` (centres unmarked) [Example 42, Sodium 6-cyclopropyl-7-(4-(2,4-dichlorophenethylcarbamoyl)phenoxy)chroman-4-carboxylate], under setting [1], the EC50 was determined as 73.8 nM.

For the molecule `O=C(NCCc1ccc(Cl)cc1Cl)c1ccc(Oc2c(Cl)cc3c(c2C2CC2)OCCC3C(=O)O)cc1` (centres unmarked) [Example 43, Sodium 6-chloro-8-cyclopropyl-7-(4-(2,4-dichlorophenethylcarbamoyl)phenoxy)chroman-4-carboxylate], under setting [1], the EC50 was determined as 51.5 nM.

On to `CN(C)Cc1ccc(CCNC(=O)c2ccc(Oc3cc4c(cc3C#N)C(C(=O)O)CCO4)cc2)cc1` (centres unmarked) [Example 44, 6-Cyano-7-(4-(4-((dimethylamino)methyl)phenethylcarbamoyl)phenoxy)chroman-4-carboxylic acid], for which the EC50 under setting [1] was determined as 3480 nM.

Take `N#Cc1cc2c(cc1Oc1ccc(C(=O)Nc3ccc4c(c3)CNCC4)cc1)OCCC2C(=O)O` (centres unmarked) [Example 45, 6-Cyano-7-(4-(1,2,3,4-tetrahydroisoquinolin-7-ylcarbamoyl)phenoxy)chroman-4-carboxylic acid hydrochloride]: the half-maximal effective concentration (EC50) under setting [2] came out at 1370 nM.

As to `O=C(NCCc1ccc(Cl)cc1)c1ccc(Oc2c(Cl)cc3c(c2Cl)OCCC3C(=O)O)cc1` (centres unmarked) [Example 46, Sodium 6,8-dichloro-7-(4-(4-chlorophenethylcarbamoyl)phenoxy)chroman-4-carboxylate], the EC50 came out at 15.8 nM under setting [2] and 176 nM under setting [1].

Turning to `N#Cc1cc2c(cc1Oc1ccc(C(=O)NC3CC3c3ccccc3)cc1)OCCC2C(=O)O` (centres unmarked) [Example 47, 7-(4-((2-Phenylcyclopropyl)carbamoyl)phenoxy)-6-cyano-3,4-dihydro-2H-chromene-4-carboxylic acid], the EC50 under setting [2] is 12.1 nM.

As for `COc1cccc(CCNC(=O)c2ccc(Oc3cc4c(cc3C#N)C(C(=O)O)CCO4)cc2)c1` (centres unmarked) [Example 48, 7-(4-((3-Methoxyphenethyl)carbamoyl)phenoxy)-6-cyano-3,4-dihydro-2H-chromene-4-carboxylic acid], the EC50 under setting [2] worked out at 30.7 nM.

`N#Cc1cc2c(cc1Oc1ccc(C(=O)NCCc3ccc(F)cc3)cc1)OCCC2C(=O)O` (centres unmarked) [Example 49, 7-(4-((4-Fluorophenethyl)carbamoyl)phenoxy)-6-cyano-3,4-dihydro-2H-chromene-4-carboxylic acid]: the EC50 under setting [2] stood at 22.5 nM.

`N#Cc1cc2c(cc1Oc1ccc(C(=O)NCCc3ccc(C(F)(F)F)cc3)cc1)OCCC2C(=O)O` (centres unmarked) [Example 50, 7-(4-((4-(Trifluoromethyl)phenethyl)carbamoyl)phenoxy)-6-cyano-3,4-dihydro-2H-chromene-4-carboxylic acid]: under setting [2], the EC50 turned out to be 11 nM.

For `N#Cc1cc2c(cc1Oc1ccc(C(=O)NC3CC3c3ccc(Cl)cc3)cc1)OCCC2C(=O)O` (centres unmarked) [Example 51, 7-(4-((2-(4-Chlorophenyl)cyclopropyl)carbamoyl)phenoxy)-6-cyano-3,4-dihydro-2H-chromene-4-carboxylic acid], the EC50 reads like this: under setting [2], 12.1 nM; under setting [1], 14.8 nM.

As for `N#Cc1cc2c(cc1Oc1ccc(C(=O)NC3COc4ccccc4C3)cc1)OCCC2C(=O)O` (centres unmarked) [Example 52, 7-(4-(chroman-3-ylcarbamoyl)phenoxy)-6-cyanochroman-4-carboxylic acid], under setting [2], the EC50 turned out to be 90.8 nM.

For `COc1ccc2c(c1)CCC(NC(=O)c1ccc(Oc3cc4c(cc3C#N)C(C(=O)O)CCO4)cc1)C2` (centres unmarked) [Example 53, 6-Cyano-7-(4-(6-methoxy-1,2,3,4-tetrahydronaphthalen-2-ylcarbamoyl)phenoxy)chroman-4-carboxylic acid], the EC50 under setting [2] worked out at 60.5 nM.

Consider `N#Cc1cc2c(cc1Oc1ccc(C(=O)NCc3cccc4ccccc34)cc1)OCCC2C(=O)O` (centres unmarked) [Example 54, 6-Cyano-7-(4-(naphthalen-1-ylmethylcarbamoyl)phenoxy)chroman-4-carboxylic acid], for which the EC50 under setting [2] is 109 nM.

For `N#Cc1cc2c(cc1Oc1ccc(C(=O)NCCc3cccc4ccccc34)cc1)OCCC2C(=O)O` (centres unmarked) [Example 55, 6-Cyano-7-(4-(2-(naphthalen-1-yl)ethylcarbamoyl)phenoxy)chroman-4-carboxylic acid], under setting [2], the EC50 amounted to 12.1 nM.

For the molecule `N#Cc1cc2c(cc1Oc1ccc(C(=O)NCCc3ccc4ccccc4c3)cc1)OCCC2C(=O)O` (centres unmarked) [Example 56, 6-Cyano-7-(4-(2-(naphthalen-2-yl)ethylcarbamoyl)phenoxy)chroman-4-carboxylic acid], the EC50 under setting [2] was found to be 14.2 nM.

With `CC(C)(C)c1ccc(CCNC(=O)c2ccc(Oc3cc4c(cc3C#N)C(C(=O)O)CCO4)cc2)cc1` (centres unmarked) [Example 57, 7-(4-(4-tert-Butylphenethylcarbamoyl)phenoxy)-6-cyanochroman-4-carboxylic acid], the EC50 under setting [2] was 18.9 nM.

As for `N#Cc1cc2c(cc1Oc1ccc(C(=O)NCCc3ccc(-c4ccccc4)cc3)cc1)OCCC2C(=O)O` (centres unmarked) [Example 58, 7-(4-(2-(Biphenyl-4-yl)ethylcarbamoyl)phenoxy)-6-cyanochroman-4-carboxylic acid], under setting [1], the EC50 worked out at 434 nM.

As to `O=C(NCCc1ccc(-c2ccccc2)cc1)c1ccc(Oc2cc3c(cc2Cl)C(C(=O)O)CCO3)cc1` (centres unmarked) [Example 59], under setting [1], the EC50 amounted to 158 nM.

On to `COc1ccccc1CCNC(=O)c1ccc(Oc2cc3c(cc2Cl)C(C(=O)O)CCO3)cc1` (centres unmarked) [Example 63, Sodium 6-chloro-7-(4-(2-methoxyphenethylcarbamoyl)phenoxy)chroman-4-carboxylate], for which the EC50 under setting [1] is 305 nM.

In the case of `O=C(NCCc1ccccc1OC(F)(F)F)c1ccc(Oc2cc3c(cc2Cl)C(C(=O)O)CCO3)cc1` (centres unmarked) [Example 64, Sodium 6-chloro-7-(4-(2-(trifluoromethoxy)phenethylcarbamoyl)phenoxy)chroman-4-carboxylate], the EC50 under setting [1] amounted to 153 nM.

Turning to `O=C(NCCc1ccccc1Oc1ccccc1)c1ccc(Oc2cc3c(cc2Cl)C(C(=O)O)CCO3)cc1` (centres unmarked) [Example 65, Sodium 6-chloro-7-(4-(2-phenoxyphenethylcarbamoyl)phenoxy)chroman-4-carboxylate], the EC50 under setting [1] was determined as 80.4 nM.

For `Cc1ccc(-c2cccc(NC(=O)c3ccc(Oc4cc5c(cc4C#N)C(C(=O)O)CCO5)cc3)c2)cc1C` (centres unmarked) [Example 66, 6-Cyano-7-(4-(3′,4′-dimethylbiphenyl-3-ylcarbamoyl)phenoxy)chroman-4-carboxylic acid], under setting [1], the EC50 came out at 68.2 nM.

As to `N#Cc1cc2c(cc1Oc1ccc(C(=O)Nc3cccc(-c4ccccc4)c3)cc1)OCCC2C(=O)O` (centres unmarked) [Example 67, 7-(4-(Biphenyl-3-ylcarbamoyl)phenoxy)-6-cyanochroman-4-carboxylic acid], under setting [1], the EC50 worked out at 173 nM.

For the origin of these results see patent US9556139B2, “6-substituted phenoxychroman carboxylic acid derivatives” (Array BioPharma Inc., priority 2008, dated 2017).
